# Experiments:
# [1] = Stability in organic medium (dimethyl sulfoxide) by UV-Vis spectroscopy; type: physicochemical; conditions: for Relative variation of the maximum absorbance of the π→π* transitions: band 289-300 nm (λmax in column head); for Relative variation of the maximum absorbance of the charge transfer bands: band 357-425 nm (λmax in column head)
# Protocol: (§1) The stability of the complexes 4-11 in organic and aqueous media was evaluated over 24 h by UV-Vis spectroscopy at room temperature, in dark, on a Jasco V-660 spectrometer using quartz cuvettes (1 cm optical path length). The electronic spectra (270-900 nm) were acquired at regular periods of time (0 h, 0.25 h, 0.5 h, 0.75 h, 1 h, 2 h, 3 h, 4 h, 5 h, 6 h, 24 h) for solutions of 100% dimethyl sulfoxide (complexes 4-11) and 5% dimethyl sulfoxide/95% Dulbecco's Modified Eagle Medium (complexes 4, 5 and 8-11) or 10% dimethyl sulfoxide/90% Dulbecco's Modified Eagle Medium (complexes 6 and 7) at concentrations ranging from 7.0×10^-5 M to 3.0×10^-4 M.
# [2] = Stability in aqueous medium (dimethyl sulfoxide/Dulbecco's Modified Eagle Medium) by UV-Vis spectroscopy; type: physicochemical; conditions: for Relative variation of the maximum absorbance of the π→π* transitions: band 292-296 nm (λmax in column head); for Relative variation of the maximum absorbance of the charge transfer bands: band 358-400 nm (λmax in column head)
# Protocol: as §1
# [3] = 5% dimethyl sulfoxide/95% Dulbecco's Modified Eagle Medium, time 0 h
# [4] = 5% dimethyl sulfoxide/95% Dulbecco's Modified Eagle Medium, time 0.25 h
# [5] = 5% dimethyl sulfoxide/95% Dulbecco's Modified Eagle Medium, time 0.5 h
# [6] = 5% dimethyl sulfoxide/95% Dulbecco's Modified Eagle Medium, time 0.75 h
# [7] = 5% dimethyl sulfoxide/95% Dulbecco's Modified Eagle Medium, time 1 h
# [8] = 5% dimethyl sulfoxide/95% Dulbecco's Modified Eagle Medium, time 2 h
# [9] = 5% dimethyl sulfoxide/95% Dulbecco's Modified Eagle Medium, time 3 h
# [10] = 5% dimethyl sulfoxide/95% Dulbecco's Modified Eagle Medium, time 4 h
# [11] = 5% dimethyl sulfoxide/95% Dulbecco's Modified Eagle Medium, time 5 h
# [12] = 5% dimethyl sulfoxide/95% Dulbecco's Modified Eagle Medium, time 6 h
# [13] = 5% dimethyl sulfoxide/95% Dulbecco's Modified Eagle Medium, time 24 h
# [14] = 10% dimethyl sulfoxide/90% Dulbecco's Modified Eagle Medium, time 0 h
# [15] = 10% dimethyl sulfoxide/90% Dulbecco's Modified Eagle Medium, time 0.25 h
# [16] = 10% dimethyl sulfoxide/90% Dulbecco's Modified Eagle Medium, time 0.5 h
# [17] = 10% dimethyl sulfoxide/90% Dulbecco's Modified Eagle Medium, time 0.75 h
# [18] = 10% dimethyl sulfoxide/90% Dulbecco's Modified Eagle Medium, time 1 h
# [19] = 10% dimethyl sulfoxide/90% Dulbecco's Modified Eagle Medium, time 2 h
# [20] = 10% dimethyl sulfoxide/90% Dulbecco's Modified Eagle Medium, time 3 h
# [21] = 10% dimethyl sulfoxide/90% Dulbecco's Modified Eagle Medium, time 4 h
# [22] = 10% dimethyl sulfoxide/90% Dulbecco's Modified Eagle Medium, time 5 h
# [23] = 10% dimethyl sulfoxide/90% Dulbecco's Modified Eagle Medium, time 6 h
# [24] = 10% dimethyl sulfoxide/90% Dulbecco's Modified Eagle Medium, time 24 h
smiles,measurement,setting,value
COc1cc[n+]2c(c1)-c1cc(O)cc[n+]1[Ru-]2([CH]1C=CC=C1)[PH](c1ccccc1)(c1ccccc1)c1ccccc1.O=S(=O)([O-])C(F)(F)F (centres unmarked) [compound 10],Relative variation of the maximum absorbance of the π→π* transitions,[1]; time 0 h,0.0%
same,Relative variation of the maximum absorbance of the charge transfer bands,[1]; time 0 h,0.0%
same,Relative variation of the maximum absorbance of the π→π* transitions,[1]; time 0.25 h,0.0%
same,Relative variation of the maximum absorbance of the charge transfer bands,[1]; time 0.25 h,0.0%
same,Relative variation of the maximum absorbance of the π→π* transitions,[1]; time 0.5 h,0.0%
same,Relative variation of the maximum absorbance of the charge transfer bands,[1]; time 0.5 h,−0.2%
same,Relative variation of the maximum absorbance of the π→π* transitions,[1]; time 0.75 h,−0.1%
same,Relative variation of the maximum absorbance of the charge transfer bands,[1]; time 0.75 h,−0.3%
same,Relative variation of the maximum absorbance of the π→π* transitions,[1]; time 1 h,0.9%
same,Relative variation of the maximum absorbance of the charge transfer bands,[1]; time 1 h,0.7%
same,Relative variation of the maximum absorbance of the π→π* transitions,[1]; time 2 h,1.5%
same,Relative variation of the maximum absorbance of the charge transfer bands,[1]; time 2 h,1.5%
same,Relative variation of the maximum absorbance of the π→π* transitions,[1]; time 3 h,2.5%
same,Relative variation of the maximum absorbance of the charge transfer bands,[1]; time 3 h,2.5%
same,Relative variation of the maximum absorbance of the π→π* transitions,[1]; time 4 h,3.0%
same,Relative variation of the maximum absorbance of the charge transfer bands,[1]; time 4 h,3.1%
same,Relative variation of the maximum absorbance of the π→π* transitions,[1]; time 5 h,3.0%
same,Relative variation of the maximum absorbance of the charge transfer bands,[1]; time 5 h,3.2%
same,Relative variation of the maximum absorbance of the π→π* transitions,[1]; time 6 h,2.8%
same,Relative variation of the maximum absorbance of the charge transfer bands,[1]; time 6 h,3.1%
same,Relative variation of the maximum absorbance of the π→π* transitions,[1]; time 24 h,3.3%
same,Relative variation of the maximum absorbance of the charge transfer bands,[1]; time 24 h,4.2%
same,Relative variation of the maximum absorbance of the π→π* transitions,[2]; [3],0.0%
same,Relative variation of the maximum absorbance of the charge transfer bands,[2]; [3],0.0%
same,Relative variation of the maximum absorbance of the π→π* transitions,[2]; [4],0.0%
same,Relative variation of the maximum absorbance of the charge transfer bands,[2]; [4],−0.8%
same,Relative variation of the maximum absorbance of the π→π* transitions,[2]; [5],−1.7%
same,Relative variation of the maximum absorbance of the charge transfer bands,[2]; [5],−0.7%
same,Relative variation of the maximum absorbance of the π→π* transitions,[2]; [6],−1.9%
same,Relative variation of the maximum absorbance of the charge transfer bands,[2]; [6],−1.0%
same,Relative variation of the maximum absorbance of the π→π* transitions,[2]; [7],−2.2%
same,Relative variation of the maximum absorbance of the charge transfer bands,[2]; [7],−1.3%
same,Relative variation of the maximum absorbance of the π→π* transitions,[2]; [8],−3.1%
same,Relative variation of the maximum absorbance of the charge transfer bands,[2]; [8],−2.3%
same,Relative variation of the maximum absorbance of the π→π* transitions,[2]; [9],−4.1%
same,Relative variation of the maximum absorbance of the charge transfer bands,[2]; [9],−3.1%
same,Relative variation of the maximum absorbance of the π→π* transitions,[2]; [10],−5.1%
same,Relative variation of the maximum absorbance of the charge transfer bands,[2]; [10],−3.6%
same,Relative variation of the maximum absorbance of the π→π* transitions,[2]; [11],−5.6%
same,Relative variation of the maximum absorbance of the charge transfer bands,[2]; [11],−4.3%
same,Relative variation of the maximum absorbance of the π→π* transitions,[2]; [12],−6.0%
same,Relative variation of the maximum absorbance of the charge transfer bands,[2]; [12],−4.8%
same,Relative variation of the maximum absorbance of the π→π* transitions,[2]; [13],−7.0%
same,Relative variation of the maximum absorbance of the charge transfer bands,[2]; [13],−5.0%
CC(=O)C1=C[CH]([Ru-]2([PH](c3ccccc3)(c3ccccc3)c3ccccc3)[n+]3cccc4ccc5ccc[n+]2c5c43)C=C1.O=S(=O)([O-])C(F)(F)F (centres unmarked) [compound 6],Relative variation of the maximum absorbance of the charge transfer bands,[1]; time 0 h,0.0%
same,Relative variation of the maximum absorbance of the charge transfer bands,[1]; time 0.25 h,−0.1%
same,Relative variation of the maximum absorbance of the charge transfer bands,[1]; time 0.5 h,0.2%
same,Relative variation of the maximum absorbance of the charge transfer bands,[1]; time 0.75 h,0.0%
same,Relative variation of the maximum absorbance of the charge transfer bands,[1]; time 1 h,0.9%
same,Relative variation of the maximum absorbance of the charge transfer bands,[1]; time 2 h,2.6%
same,Relative variation of the maximum absorbance of the charge transfer bands,[1]; time 3 h,1.3%
same,Relative variation of the maximum absorbance of the charge transfer bands,[1]; time 4 h,1.5%
same,Relative variation of the maximum absorbance of the charge transfer bands,[1]; time 5 h,−0.2%
same,Relative variation of the maximum absorbance of the charge transfer bands,[1]; time 6 h,−0.3%
same,Relative variation of the maximum absorbance of the charge transfer bands,[1]; time 24 h,0.3%
same,Relative variation of the maximum absorbance of the π→π* transitions,[2]; [14],0.0%
same,Relative variation of the maximum absorbance of the charge transfer bands,[2]; [14],0.0%
same,Relative variation of the maximum absorbance of the π→π* transitions,[2]; [15],−0.4%
same,Relative variation of the maximum absorbance of the charge transfer bands,[2]; [15],0.0%
same,Relative variation of the maximum absorbance of the π→π* transitions,[2]; [16],0.4%
same,Relative variation of the maximum absorbance of the charge transfer bands,[2]; [16],0.4%
same,Relative variation of the maximum absorbance of the π→π* transitions,[2]; [17],0.3%
same,Relative variation of the maximum absorbance of the charge transfer bands,[2]; [17],0.3%
same,Relative variation of the maximum absorbance of the π→π* transitions,[2]; [18],−0.2%
same,Relative variation of the maximum absorbance of the charge transfer bands,[2]; [18],0.0%
same,Relative variation of the maximum absorbance of the π→π* transitions,[2]; [19],1.0%
same,Relative variation of the maximum absorbance of the charge transfer bands,[2]; [19],0.6%
same,Relative variation of the maximum absorbance of the π→π* transitions,[2]; [20],2.0%
same,Relative variation of the maximum absorbance of the charge transfer bands,[2]; [20],0.8%
same,Relative variation of the maximum absorbance of the π→π* transitions,[2]; [21],2.1%
same,Relative variation of the maximum absorbance of the charge transfer bands,[2]; [21],0.8%
same,Relative variation of the maximum absorbance of the π→π* transitions,[2]; [22],1.3%
same,Relative variation of the maximum absorbance of the charge transfer bands,[2]; [22],0.4%
same,Relative variation of the maximum absorbance of the π→π* transitions,[2]; [23],1.5%
same,Relative variation of the maximum absorbance of the charge transfer bands,[2]; [23],0.2%
same,Relative variation of the maximum absorbance of the π→π* transitions,[2]; [24],5.3%
same,Relative variation of the maximum absorbance of the charge transfer bands,[2]; [24],1.8%

# — patent US20250195463A1, “ORGANOMETALLIC COMPLEX, CONTROLLED-RELEASE MULTI-FUNCTIONAL DRUG, PHARMACEUTICAL COMPOSITION, PROCESSES FOR THE PREPARATION THEREOF AND THEIR USE” (FACULDADE DE CIÊNCIAS DA UNIVERSIDADE DE LISBOA, priority 2022, published 2025)
